# Experimental data as given in patent US20170306042A1, “IMMUNOGENIC MODULATION BY ENDOCRINE DEPRIVATION THERAPY IMPROVES SENSITIVITY OF TUMOR CELLS TO IMMUNE MEDIATED LYSIS” (The United States of America, as represented by the …, priority 2014, published 2017).
# How the values were obtained:
# LNCaP cells [1] = experiment: CEA- or PSA-specific CD8+ T-cell killing, LNCaP targets; assay type: cell-based, human; settings: 10 μM, 48 hours, P<0.01
# [2] = test system: castration resistant prostate cancer; settings: AFFIRM trial (Scher et al. 2012); cited from earlier work
# [3] = test system: MDA MB 231 (ER−AR−) cells; experiment: Apoptosis PCR array (90 genes) in MDA MB 231 cells; assay type: cell-based, human; settings: 24 hours, qRT-PCR
# Experimental: Total RNA was isolated from the cells using the RNeasy Extraction Kit (Qiagen, Valencia, Calif.). RNA was reverse-transcribed into cDNA using the Advantage RT-for-PCR Kit (Clontech, Mountain View, Calif.). cDNA (10 ng) was used in a quantitative real-time (RT) PCR reaction using probes specific for AR (Hs00901571_m1) and GAPDH (4326317E). AR mRNA expression level was calculated as expression relative to GAPDH. […] Total RNA was isolated from the cells using the RNeasy Extraction Kit. RNA was reverse-transcribed into cDNA using the RT^2 First Strand Kit (SA Biosciences, Valencia, Calif.). Relative mRNA expression levels of 90 genes involved in apoptosis were assessed using an apoptosis PCR array (SA Biosciences) per the manufacturer's instructions. RT-PCR was performed on the 7300 Real-Time PCR System (Applied Biosystems, Carlsbad, Calif.).
# OPG is a decoy receptor for receptor activator of nuclear factor kappa-B ligand (RANKL) which inhibits RANKL activation of nuclear factor kappa-B induced apoptosis.
# [4] = test system: LNCaP AR-shRNA (AR−, HLA-A2) cells; settings: 10 μM
# LNCaP/AR(cs) cells = experiment: CEA- or PSA-specific CD8+ T-cell killing, LNCaP/AR(cs) targets; assay type: cell-based, human
# [5] = test system: MDA MB 231 (ER−AR−) cells; experiment: TRAIL-mediated lysis assay, MDA MB 231 targets; assay type: cell-based, human; settings: 10 μM, 500 ng/ml KillerTRAIL, P<0.01
# Experimental: The HLA-A2-restricted CEA-specific CTL recognizes the CEA peptide epitope […] (SEQ ID NO: 1) (CAP-1). […] The percentage of tumor lysis was calculated as follows: % tumor lysis=[(experimental cpm−spontaneous cpm)/(maximum cpm−spontaneous cpm)]×100.
# (§1) OPG expression was inhibited in MDA MB 231 cells using siRNA duplexes targeting OPG sequences and control siRNA duplexes (Origene, Rockville, Md.). MDA-MB-231 cells were transfected with OPG or control siRNA according to the manufacturer's instructions. […] Forty-eight hours post siRNA transfection, the MDA MB 231 cells were also used as target cells in CEA-specific CTL and TRAIL-mediated lysis assays as described.
# ZR75-1 cells = settings: 10 μM, 48 hours
# Experimental: After 48 hours, cells were harvested and stained with the following antibodies: HLA A2-PE-Cy7, MUC-1-FITC, CD54-BV421, CD95-FITC (BD Biosciences, San Jose, Calif.), CEA-APC (Miltenyi Biotec, Auburn, Calif.), TRAIL receptor 1 and TRAIL receptor 2 (R & D Systems, Minneapolis, Minn.). LIVE/DEAD Fixable Violet Dead Cell Stain (Life Technologies, Grand Island, N.Y.) was used to determine cell viability. Cells were incubated with the antibodies for 30 min at 4° C., acquired on a FACS Verse flow cytometer (Becton Dickinson, Franklin Lakes, N.J.), and analyzed using FlowJo software (TreeStar, Inc., Ashland, Oreg.).
# LNCaP cells [6] = experiment: Apoptosis PCR array (96 genes) in LNCaP cells; assay type: cell-based, human
# Experimental: The properties of ADT that induce immunogenic modulation and sensitize prostate tumor cells to immune-mediated attack are novel and have not been previously described. It was hypothesized that modulation of apoptotic genes might be part of the mechanism of action of ADT-induced CTL sensitization. […] In particular, gene expression was assessed using an apoptosis PCR array (SA Biosciences, Valencia, Calif.) as per the manufacturer's instructions. RT-PCR was performed on the 7300 Real-Time PCR System (Applied Biosystems, Carlsbad, Calif.). Where indicated, values were calculated as expression relative to GAPDH, as previously described (Ardiani et al., Cancer Res., 74(7): 1945-1957 (2014))
# [7] = test system: murine prostate carcinomas; settings: cited from earlier work
# ZR75-1 (ER+AR+) cells = experiment: Tumor cell proliferation, ZR75-1; assay type: cell-based, human; settings: 10 μM; 48 or 72 hours; P<0.05 vs vehicle
# Experimental: At the indicated time points, cells were harvested and the number of viable cells was determined by trypan blue exclusion.
# LNCaP cells [8] = experiment: MUC1-specific CTL lysis assay, LNCaP targets; assay type: cell-based, human; settings: 10 μM, 48 hours, E:T 30:1, vs vehicle
# Experimental: At specific time points, cells were harvested and counted. Equal numbers of effector target cells from all treatment were plated with respective cytotoxic T-cells.
# OPG = experiment: ELISA of secreted OPG, MDA MB 231 cells; assay type: cell-based, human; settings: 10 μM, 48 hours, P<0.05
# Experimental: ELISA was performed on combined supernatant samples taken following 24 and 48 hours of treatment.
# as §1
# [9] = apoptosis PCR array, negative = down-regulated
substance,measurement,setting,value
enzalutamide,sensitivity to T-cell killing,LNCaP cells [1],significantly improved the cells' sensitivity
same,advantage in overall survival compared to placebo,[2],4.8 month
same,osteoprotegerin (OPG) gene down-regulated,[3],~25 fold
same,growth of LNCaP AR-shRNA,[4],did not affect the growth
same,sensitivity to T-cell killing,"LNCaP/AR(cs) cells; 10 μM, CEA- or PSA-specific CD8+ T-cells, P<0.01",significantly improved the cells' sensitivity
same,sensitivity to T-cell killing,"LNCaP/AR(cs) cells; 30 μM, P<0.01, no significant difference to 10 μM",significantly improved the cells' sensitivity
same,sensitivity to Trail-mediated lysis,[5],significantly improved the sensitivity
same,CEA mean fluorescence intensity,ZR75-1 cells,4690
same,CEA percent positivity,ZR75-1 cells,28.9%
same,Fas mean fluorescence intensity,ZR75-1 cells,1611
same,Fas percent positivity,ZR75-1 cells,26.8%
same,HLA A2 mean fluorescence intensity,ZR75-1 cells,3047
same,HLA A2 percent positivity,ZR75-1 cells,10.0%
same,ICAM-1 mean fluorescence intensity,ZR75-1 cells,2473
same,ICAM-1 percent positivity,ZR75-1 cells,26.1%
same,MUC-1 mean fluorescence intensity,ZR75-1 cells,2203
same,MUC-1 percent positivity,ZR75-1 cells,37.1%
same,Trail R1 mean fluorescence intensity,ZR75-1 cells,4325
same,Trail R1 percent positivity,ZR75-1 cells,7.9%
same,Trail R2 mean fluorescence intensity,ZR75-1 cells,4502
same,CASP1 (Caspase 1) gene expression change,LNCaP cells [6]; [9],−2.17 fold
same,CASP5 gene expression change,LNCaP cells [6]; [9],−3.50 fold
same,CASP8 gene expression change,LNCaP cells [6]; [9],−2.96 fold
same,CD27 gene expression change,LNCaP cells [6]; [9],−2.26 fold
same,DAPK1 gene expression change,LNCaP cells [6]; [9],−6.53 fold
same,HRK gene expression change,LNCaP cells [6]; [9],−2.86 fold
same,NAIP gene expression change,LNCaP cells [6]; [9],−13.90 fold
same,TNFRSF25 (DR3) gene expression change,LNCaP cells [6]; [9],−3.70 fold
same,TNFSF8 gene expression change,LNCaP cells [6]; [9],−3.50 fold
same,DAPK1 down-regulated,LNCaP cells [6]; rounded from Table 1,6.5 fold
same,NAIP down-regulated,LNCaP cells [6]; rounded from Table 1,14 fold
same,number or function of T-cells,[7]; Ardiani et al. 2013,did not alter the number or function of T-cells
same,MHC-I and Fas on the surface of tumor cells,[7]; murine prostate carcinomas (Ardiani et al. 2013),up-regulated MHC-I and Fas
same,proliferation of ZR75-1 cells,ZR75-1 (ER+AR+) cells,significantly inhibited the proliferation
same,sensitivity to MUC1-specific CTL-mediated lysis,LNCaP cells [8],significantly enhanced their sensitivity
same,amount of secreted OPG,OPG,reduced the amount of OPG
